Assay results: patent publication US8293738B2, “Indazole inhibitors of kinase” (Abbott Laboratories, priority 2010, dated 2012)

Assays:
Aurora B = biological target: T1, Aurora B (Homo sapiens, UniProt Q96GD4); assay: Aurora B enzyme assay (time-resolved fluorescence, histone H3 peptide); assay type: biochemical; conditions: 1 mM ATP, 1 hour
T1 construct: Active Aurora B enzyme (recombinant residues 1-344)
Protocol: To determine Aurora B activity of representative compounds of the invention, Active Aurora B enzyme (recombinant residues 1-344) and INCENP (recombinant GST fusion protein (Upstate)) were incubated in wells of a 384 well plate with biotinylted histone H3 peptide residues 1-21 (Upstate), 1 mM ATP, and various concentrations of inhibitors in a HEPES buffer, pH 7.4 containing MgCl2, sodium othrovanadate, and Triton X-100. After 1 hour, the reaction was stopped with EDTA and anti-phospho-histone H3 Europium Cryptate (Cis-Bio) and SA-APC (Phycolink, Prozyme) were added to detect the phosphopeptide. The amount of phosphorylation was determined by the time-resolved fluorescence ratio of signals at 665 nm and 615 nm. The IC50's were calculated by an exponential fit of the inhibition values with the inhibitor concentrations using Assay Explorer software.

Aurora A = biological target: T2, Aurora A (Homo sapiens, UniProt O14965); assay: Aurora A enzyme assay (time-resolved fluorescence, STK substrate-2); assay type: biochemical; conditions: 1 mM ATP, 1 hour
T2 sequence (O14965 1-403): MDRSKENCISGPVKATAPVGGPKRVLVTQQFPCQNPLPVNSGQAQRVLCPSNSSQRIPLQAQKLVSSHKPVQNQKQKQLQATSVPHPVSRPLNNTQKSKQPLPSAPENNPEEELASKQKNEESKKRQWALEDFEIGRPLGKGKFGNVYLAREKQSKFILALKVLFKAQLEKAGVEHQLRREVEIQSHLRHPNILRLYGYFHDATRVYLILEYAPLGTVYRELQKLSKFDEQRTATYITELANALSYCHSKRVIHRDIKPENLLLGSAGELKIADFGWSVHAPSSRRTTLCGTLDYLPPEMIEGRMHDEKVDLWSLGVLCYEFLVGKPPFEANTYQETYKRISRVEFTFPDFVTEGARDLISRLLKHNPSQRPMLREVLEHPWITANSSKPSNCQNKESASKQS
Protocol: To determine Aurora A and C activity of representative compounds of the invention, Active Aurora A or C enzyme was incubated in wells of a 384 well plate with biotinylated STK substrate-2 (Upstate), 1 mM ATP, and various concentrations of inhibitors in a Hepes buffer, pH 7.4 containing MgCl2, sodium othrovanadate, and Triton X-100. After 1 hour, the reaction was stopped with EDTA and anti-phospho-STK antibody Europium Cryptate (Upstate) and SA-XL665 (Upstate) were added to detect the phosphopeptide. The amount of phosphorylation was determined by the time-resolved fluorescence ratio of signals at 665 nm and 615 nm. The IC50s were calculated by an exponential fit of the inhibition values with the inhibitor concentrations using Assay Explorer software.

KDR [1] = biological target: T3, KDR (Homo sapiens, UniProt P35968); assay: KDR cell assay; assay type: cell-based
Target sequence in this assay (P35968 20-1356, species assumed): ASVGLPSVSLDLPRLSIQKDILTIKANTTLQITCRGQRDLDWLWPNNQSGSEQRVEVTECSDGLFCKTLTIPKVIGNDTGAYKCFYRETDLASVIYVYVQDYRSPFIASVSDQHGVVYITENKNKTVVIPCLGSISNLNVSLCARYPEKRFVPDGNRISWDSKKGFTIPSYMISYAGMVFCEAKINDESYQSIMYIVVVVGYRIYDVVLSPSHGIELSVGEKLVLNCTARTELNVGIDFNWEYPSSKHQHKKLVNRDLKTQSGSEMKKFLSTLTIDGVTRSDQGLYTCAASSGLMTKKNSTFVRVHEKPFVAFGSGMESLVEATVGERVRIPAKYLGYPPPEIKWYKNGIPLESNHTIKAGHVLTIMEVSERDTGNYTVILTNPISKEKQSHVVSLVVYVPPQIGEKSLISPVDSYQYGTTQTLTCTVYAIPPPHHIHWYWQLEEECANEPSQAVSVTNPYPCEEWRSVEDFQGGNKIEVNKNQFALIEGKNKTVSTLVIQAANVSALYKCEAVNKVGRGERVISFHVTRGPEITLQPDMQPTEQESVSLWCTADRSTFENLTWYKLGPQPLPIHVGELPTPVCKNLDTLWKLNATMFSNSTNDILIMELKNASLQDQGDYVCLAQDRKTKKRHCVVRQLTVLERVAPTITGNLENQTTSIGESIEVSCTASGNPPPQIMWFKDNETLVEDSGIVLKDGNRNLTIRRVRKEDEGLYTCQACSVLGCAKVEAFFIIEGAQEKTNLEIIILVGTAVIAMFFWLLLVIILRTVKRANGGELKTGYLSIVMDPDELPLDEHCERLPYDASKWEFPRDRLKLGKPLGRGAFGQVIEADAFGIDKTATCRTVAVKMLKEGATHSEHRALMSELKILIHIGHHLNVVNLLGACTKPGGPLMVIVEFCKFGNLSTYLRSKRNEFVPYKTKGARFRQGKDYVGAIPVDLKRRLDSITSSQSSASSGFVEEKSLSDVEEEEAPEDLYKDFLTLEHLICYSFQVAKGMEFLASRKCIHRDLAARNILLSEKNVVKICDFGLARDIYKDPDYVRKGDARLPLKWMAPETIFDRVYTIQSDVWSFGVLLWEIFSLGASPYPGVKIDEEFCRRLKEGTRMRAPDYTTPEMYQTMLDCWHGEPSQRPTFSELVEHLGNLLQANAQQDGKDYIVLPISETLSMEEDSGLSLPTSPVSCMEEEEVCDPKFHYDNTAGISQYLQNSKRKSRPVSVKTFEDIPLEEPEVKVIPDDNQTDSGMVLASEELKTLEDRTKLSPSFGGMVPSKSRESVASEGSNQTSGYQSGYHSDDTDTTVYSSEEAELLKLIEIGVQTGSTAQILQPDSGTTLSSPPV

[2] = test system: H1299 cells (Human Non-Small Cell Lung Carcinoma); assay: Induction of polyploidy in H1299 cells, high content analysis; assay type: cell-based; conditions: NCI-H1299 cells, 48 hours, polyploid = nuclear area >750μ2, read-out: Polyploid HCA IC50
Protocol: To determine the induction of polyploidy in H1299 cells (Human Non-Small Cell Lung Carcinoma), NCI-H1299 were seeded (4K/well) into 96-well culture plates (tissue culture grade, black, flat-clear bottom) and incubated overnight to produce cell-to-plate adherance Inhibitors at varying concentrations were added into duplicate wells containing cells and culture media (RPMI 1640, 10% fetal calf serum) and incubated at 37 C for 48 hours. The plates were then washed with PBS and the adherent cells fixed by incubating with 3% formalin for 1 hour. After washing four times with PBS, the cells were then stained with Hoechst and subjected to fluorescent (3601/460e) microscopic high content analysis to determine the effect of inhibitors on nuclear size. Polyploid cells (>4N) were defined as those having nuclear area >750μ2. […]

KDR [3] = biological target: T3, KDR; assay: KDR HTRF in vitro kinase assay; assay type: biochemical; parameters: purified enzyme (His6-KDR 789-1354, MW 63 kD); conditions: 1 mM ATP, 60 minutes
Protocol: To determine the activity of the various kinases, a homogenous time-resolved fluorescence (HTRF) in vitro kinase assay was used. (Mathis, G., HTRF(R) Technology. J Biomol Screen, 1999. 4(6): p. 309-314; Alfred J. Kolb, Paul V. Kaplita, David J. Hayes, Young-Whan Park, Christine Pernell, John S. Major and Gerard Mathis, Drug Discovery Today, 1998, 3, 333-342.)
For example for KDR, 7 ng/well of purified enzyme (His6-KDR 789-1354, MW 63 kD) was mixed with 0.5 μM N-biotinylated substrate (Biotin-Ahx-AEEEYFFLA-amide (SEQ. ID. 1)), various concentrations of inhibitor in reaction buffer (50 mM HEPES, pH 7.1, mM MgCl2, 2 mM MnCl2, 0.1% BSA and 1 mM DTT, […] final volume), ATP (1 mM final conc.) in a black 384-well plate. After 60 minutes incubation at room temperature, the reaction was quenched by addition of a buffered EDTA solution (final approximate concentrations: 30 mM EDTA, 0.1% BSA, 0.1% Triton X-100 and 0.24M KF) and a solution of revelation agents (to give 0.084 ng/well streptavidin-XL-665 (Cis-Bio) and 6.5 ng/well antiphsophotyrosine mAb PT66-K Europium kryptate) was added to the reaction mixture. The quenched reaction was allowed to stand at room temperature for 3 hours and was then read in a time-resolved fluorescence detector (InVision, Perkin-Elmer) at 620 nm and 665 nm sequentially with excitation. The ratio between the signal of 620 nm and 665 nm was used in the calculation of the IC50.
Target sequence in this assay (P35968 789-1354): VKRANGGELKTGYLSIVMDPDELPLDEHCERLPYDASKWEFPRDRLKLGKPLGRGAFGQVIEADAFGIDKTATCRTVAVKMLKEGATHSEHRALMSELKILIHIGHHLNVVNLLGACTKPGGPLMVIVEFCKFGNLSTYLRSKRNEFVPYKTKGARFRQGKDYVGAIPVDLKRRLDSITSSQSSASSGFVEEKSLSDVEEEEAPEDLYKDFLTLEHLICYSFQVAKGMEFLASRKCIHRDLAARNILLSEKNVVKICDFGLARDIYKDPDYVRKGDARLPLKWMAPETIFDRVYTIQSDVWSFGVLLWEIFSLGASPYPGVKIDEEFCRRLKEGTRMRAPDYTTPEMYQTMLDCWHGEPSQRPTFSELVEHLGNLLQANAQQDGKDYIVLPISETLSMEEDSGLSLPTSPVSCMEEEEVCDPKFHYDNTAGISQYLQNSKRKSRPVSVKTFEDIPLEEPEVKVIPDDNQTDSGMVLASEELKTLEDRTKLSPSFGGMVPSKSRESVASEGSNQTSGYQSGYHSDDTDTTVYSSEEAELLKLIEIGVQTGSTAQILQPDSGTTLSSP

T1 sequence (Q96GD4 whole entry, the tested form may be a part): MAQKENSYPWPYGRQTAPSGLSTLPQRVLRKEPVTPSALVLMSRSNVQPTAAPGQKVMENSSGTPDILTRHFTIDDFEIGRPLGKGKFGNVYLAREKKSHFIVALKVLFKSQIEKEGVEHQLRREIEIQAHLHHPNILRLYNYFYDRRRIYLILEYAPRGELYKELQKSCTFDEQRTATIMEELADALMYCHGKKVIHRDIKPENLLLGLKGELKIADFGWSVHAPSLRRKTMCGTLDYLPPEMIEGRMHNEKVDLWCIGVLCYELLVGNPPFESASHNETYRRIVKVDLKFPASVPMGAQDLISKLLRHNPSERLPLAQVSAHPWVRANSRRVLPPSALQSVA
T1 sequence (Q9NQS7 826-918 partner limits assumed): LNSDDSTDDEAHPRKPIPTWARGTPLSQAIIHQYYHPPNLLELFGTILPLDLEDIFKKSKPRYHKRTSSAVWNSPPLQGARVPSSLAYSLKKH

SMILES	IC50 (Aurora B) [nM]	IC50 (Aurora A) [nM]	IC50 (KDR [1]) [nM]	IC50 [2] [nM]	IC50 (KDR [3]) [nM]
O=C(Nc1ccc(-c2ccc3c(-c4cn[nH]c4)n[nH]c3c2)cc1)Nc1cccc(F)c1 [Example 9, N-(3-fluorophenyl)-N′-{4-[3-(1H-pyrazol-4-yl)-1H-indazol-6-yl]phenyl}urea]	32.7	221	300	14	76.3
Cn1cc(-c2n[nH]c3cc(-c4ccc(NC(=O)Nc5cccc(F)c5)cc4)ccc23)cn1 [Example 1, N-(3-fluorophenyl)-N′-{4-[3-(1-methyl-1H-pyrazol-4-yl)-1H-indazol-6-yl]phenyl}urea]	19.2	371	87.1	1	54.9
Cc1cccc(NC(=O)Nc2ccc(-c3ccc4c(-c5cnn(CCO)c5)n[nH]c4c3)cc2)c1 [Example 12, N-(4-{3-[1-(2-hydroxyethyl)-1H-pyrazol-4-yl]-1H-indazol-6-yl}phenyl)-N′-(3-methylphenyl)urea]	44.1	> 12500	176	55	60
O=C(Nc1ccc(-c2ccc3c(-c4cnn(CCO)c4)n[nH]c3c2)cc1)Nc1cccc(F)c1 [Example 10, N-(3-fluorophenyl)-N′-(4-{3-[1-(2-hydroxyethyl)-1H-pyrazol-4-yl]-1H-indazol-6-yl}phenyl)urea]	23.6	294	206	43	51.1
O=C(Nc1ccc(-c2ccc3c(-c4cnn(CCN5CCOCC5)c4)n[nH]c3c2)cc1)Nc1cccc(F)c1 [Example 6, N-(3-fluorophenyl)-N′-(4-{3-[1-(2-morpholin-4-ylethyl)-1H-pyrazol-4-yl]-1H-indazol-6-yl}phenyl)urea]	21.2	1000	187	18	86.1
Cc1cccc(NC(=O)Nc2ccc(-c3ccc4c(-c5cnn[nH]5)n[nH]c4c3)cc2)c1 [Example 3, N-(3-methylphenyl)-N′-{4-[3-(1H-1,2,3-triazol-5-yl)-1H-indazol-6-yl]phenyl}urea]	40.5	2490	316	35	45
O=C(Nc1ccc(-c2ccc3c(-c4ccn[nH]4)n[nH]c3c2)cc1)Nc1cccc(F)c1 [Example 8, N-(3-fluorophenyl)-N′-{4-[3-(1H-pyrazol-5-yl)-1H-indazol-6-yl]phenyl}urea]	23.3	3400	–	12	525
Cc1cccc(NC(=O)Nc2ccc(-c3ccc4c(-c5cnn(C)c5)n[nH]c4c3)cc2)c1 [Example 2, N-(3-methylphenyl)-N′-{4-[3-(1-methyl-1H-pyrazol-4-yl)-1H-indazol-6-yl]phenyl}urea]	17	> 12500	46	6	27.4

The remaining lines, values ahead:

IC50 (Aurora B) [nM]	IC50 (Aurora A) [nM]	IC50 (KDR [1]) [nM]	IC50 [2] [nM]	IC50 (KDR [3]) [nM]	SMILES
108	10800	216	–	45.1	Cn1cc(-c2n[nH]c3cc(-c4ccc(NC(=O)Nc5ccc(C(F)(F)F)cc5)cc4)ccc23)cn1 [Example 19, N-{4-[3-(1-methyl-1H-pyrazol-4-yl)-1H-indazol-6-yl]phenyl}-N′-[4-(trifluoromethyl)phenyl]urea]
10.9	> 12500	135	216	44.6	O=C(Nc1ccc(-c2ccc3c(-c4cnn(C5CCNCC5)c4)n[nH]c3c2)cc1)Nc1cccc(F)c1 [Example 16, N-(3-fluorophenyl)-N′-{4-[3-(1-piperidin-4-yl-1H-pyrazol-4-yl)-1H-indazol-6-yl]phenyl}urea]
25	3340	–	113	137	Cn1cc(-c2n[nH]c3cc(-c4cccc(CNC(=O)Nc5cccc(F)c5)c4)ccc23)cn1 [Example 29, N-(3-fluorophenyl)-N′-{3-[3-(1-methyl-1H-pyrazol-4-yl)-1H-indazol-6-yl]benzyl}urea]
24.9	246	355	10	80.7	Cn1cc(-c2n[nH]c3cc(-c4ccc(NC(=O)Nc5ccccc5Cl)cc4)ccc23)cn1 [Example 23, N-(2-chlorophenyl)-N′-{4-[3-(1-methyl-1H-pyrazol-4-yl)-1H-indazol-6-yl]phenyl}urea]
58.3	10200	–	128	154	O=C(Nc1ccc(-c2ccc3c(-c4cnn[nH]4)n[nH]c3c2)cc1)Nc1cccc(F)c1 [Example 21, N-(3-fluorophenyl)-N′-{4-[3-(1H-1,2,3-triazol-5-yl)-1H-indazol-6-yl]phenyl}urea]
10.3	299	123	1	32.2	Cc1cc(NC(=O)Nc2ccc(-c3ccc4c(-c5cnn(C)c5)n[nH]c4c3)cc2)no1 [Example 30, N-(5-methylisoxazol-3-yl)-N′-{4-[3-(1-methyl-1H-pyrazol-4-yl)-1H-indazol-6-yl]phenyl}urea]
32.5	267	47.5	1	14.8	Cn1cc(-c2n[nH]c3cc(-c4ccc(NC(=O)Nc5cccc(Cl)c5)cc4)ccc23)cn1 [Example 22, N-(3-chlorophenyl)-N′-{4-[3-(1-methyl-1H-pyrazol-4-yl)-1H-indazol-6-yl]phenyl}urea]
24.7	> 12500	–	< 1	122	Cn1cc(-c2n[nH]c3cc(-c4ccc(NC(=O)Nc5ccc(Cl)cc5)cc4)ccc23)cn1 [Example 20, N-(4-chlorophenyl)-N′-{4-[3-(1-methyl-1H-pyrazol-4-yl)-1H-indazol-6-yl]phenyl}urea]
